Columns and labels:
[1] = system: subjects; assay: VAS-Energy; type: in vivo, human; set-up: VAS-Energy rating, Mean / VAS-Energy changes from baseline, Mean Difference ± SE / VAS-Energy Δ, Mean Difference ± SE / VAS-Energy area under the curve, Mean Difference ± SE / VAS-Energy area under the curve, Mean: scale not given here; settings: for VAS-Energy Δ, effect size d / VAS-Energy Δ from 0 min, Mean / VAS-Energy Δ, Mean Difference ± SE: females; for VAS-Energy Δ, effect size d: vs placebo; for VAS-Energy Δ, Mean Difference ± SE: B vs A (placebo)
Procedure: (§1) The inventors have discovered various compositions and methods of improving various indices of neurological and neuroenergetic functions by administering 100 mg (once daily) dosages of DYNAMINE™ (dosage between 1.0 and 1.4 mg/kg) as described in the following:
(§2) All neuroenergetic tests as listed below were performed and data were collected after 0 and 4 days of assigned supplements (with acute effects also measured at day 4 over 180 minutes):
All VAS Measurement (Energy, Sustained Energy, Mental Stamina, Ability to Focus, Ability to Concentrate, Motivation to Accomplish Difficult Tasks, Drive, Vigor, Level of Positive Outlook, Mood, Feelings of Well-Being, Tolerate Stress); Day 0: Two tests were completed. The average of both scores was computed and this value was used in all statistical analysis. Day 4 (0 minutes after ingesting dose #4): Two tests were completed. The average of both scores was computed and this value was used in all statistical analysis. Day 4 (60, 120, and 180 minutes after ingesting dose #4): One test was completed at each time point.
Neuroenergic parameters are inherently subjective, nevertheless significant in human behavior and well-being. To allow for a standardization among different subjects, the following experiments were performed using a visual analog scale using anchor statements (lowest possible/highest possible) in which subjects were asked to rate their subjective experience with respect to the specific neuroenergic parameters tested.
VAS-Energy: In this subjective test, subjects were asked to rate their personal level of energy on a VAS scale using the prompt of “My level of energy right now is . . . ” (with rating lowest possible to highest possible)”. Results were collected as noted above and Table 2 provides exemplary results for Day 0 versus Day 4 ratings, whereas Table 3 provides exemplary acute results measured at Day 4 over a duration of 180 minutes.

[2] = system: subjects; assay: Stroop-Total Score; type: in vivo, human
Procedure: as §1, §2
Stroop Color Matching Test (Total Score, Accuracy %, Average Score): Day 0: Two blocks of three tests were completed. Each block of three tests was separated by 10 minutes. The median of each block was taken and then those two scores were averaged. This value was used in all statistical analysis. Day 4: Three tests were completed at four time points: after 0, 60, 120, and 180 minutes of taking dose #4. The median of the three tests at each time point was used in all statistical analysis.
The Stroop Color and Word Test (SCWT, or Stroop test) is a neuropsychological test extensively used to assess the ability to inhibit cognitive interference that occurs when the processing of a specific stimulus feature impedes the simultaneous processing of a second stimulus attribute, well-known as the Stroop effect (see e.g., Front Psychol. 2017; 8:557). Here, subjects were required to read three different tables as fast as possible. Two of them represent the “congruous condition” in which participants are required to read names of colors (‘color-words’) printed in black ink (W) and name different color patches (C). However, in the third table, the color-word (CW) condition, color-words are printed in an inconsistent color ink (e.g., the word “red” is printed in green ink). In this incongruent condition, participants are required to name the color of the ink instead of reading the word. In other words, the participants are required to perform a less automated task (i.e., naming ink color) while inhibiting the interference arising from a more automated task (i.e., reading the word). This difficulty in inhibiting the more automated process is called the Stroop effect. The Stroop test is predominantly used to measure the ability to inhibit cognitive interference. However, some sources also report its application to measure other cognitive functions such as attention, processing speed, cognitive flexibility, and working memory.
Stroop-Total Score: The results for this test were based on a total score comparing performance between Day 0 and Day 4, with Day 4 including tests over a duration of 180 minutes. Results were collected as noted above and Table 41 provides exemplary results for Day 0 versus Day 4 ratings, whereas Table 42 provides exemplary acute results measured at Day 4 over a duration of 180 minutes.

[3] = system: subjects; assay: Trail Making Test; type: in vivo, human; settings: for Trail Making Test score, Mean: lower = faster
Procedure: as §1, §2
Trail Making Test: Day 0: Two blocks of three tests were completed. Each block of three tests was separated by 10 minutes. The median of each block was taken and then those two scores were averaged. This value was used in all statistical analysis. Day 4: Three tests were completed at four time points: after 0, 60, 120, and 180 minutes of taking dose #4. The median of the three tests at each time point was used in all statistical analysis.
The trail making test has at least two test conditions. In Condition A, a subject is asked to draw lines to connect circled numbers in a numerical sequence (e.g., 1-2-3, etc.) as rapidly in possible. In Condition B the subject is asked to draw lines to connect circled numbers and letters in an alternating numeric and alphabetic sequence (i.e., 1-A-2-B, etc.) as rapidly as possible. Although trail making tests are conceptually very simple, they are thought to reflect a wide variety of cognitive processes including attention, visual search and scanning, sequencing and shifting, psychomotor speed, abstraction, flexibility, ability to execute and modify a plan of action, and ability to maintain two trains of thought simultaneously.

[4] = cited from earlier work
[5] = 100 mg once daily, Day 4, 0-180 min, vs Group A (placebo)
[6] = 100 mg once daily, Day 4, 0 min after dose #4
[7] = 100 mg once daily, Day 4, 60 min-0 min, vs Group A (placebo)
[8] = 100 mg once daily, Day 4, 60 min after dose #4
[9] = 100 mg once daily, Day 4, 120 min-0 min, vs Group A (placebo)
[10] = 100 mg once daily, Day 4, 120 min after dose #4
[11] = 100 mg once daily, Day 4, 180 min-0 min, vs Group A (placebo)
[12] = 100 mg once daily, Day 4, 180 min after dose #4
[13] = 100 mg once daily, Day 4, Δ @ 60 min
[14] = 100 mg once daily, Day 4, Δ @ 120 min
[15] = 100 mg once daily, Day 4, Δ @ 180 min

COc1nc2c(c(=O)n1C)n(C)c(=O)n2C [methylliberine, 2-methoxy-1,7,9-trimethylpurine-6,8-dione]
VAS-Energy area under the curve, Mean ([1]; 100 mg once daily, Day 4, 0-180 min): 1115 | VAS-Energy area under the curve, Mean Difference ± SE [1, 5]: 49.6 ± 36.3 | VAS-Energy area under the curve, effect size d [1, 5]: 0.15 | VAS-Energy rating, Mean [1, 6]: 5.8 | VAS-Energy changes from baseline, Mean Difference ± SE [1, 7]: 0.24 ± 0.22 | VAS-Energy changes from baseline, effect size d [1, 7]: 0.28 | VAS-Energy rating, Mean [1, 8]: 6.2 | VAS-Energy changes from baseline, Mean Difference ± SE [1, 9]: −0.14 ± 0.27 | VAS-Energy changes from baseline, effect size d [1, 9]: −0.14 | VAS-Energy rating, Mean [1, 10]: 6.2 | VAS-Energy changes from baseline, Mean Difference ± SE [1, 11]: 0.28 ± 1.24 | VAS-Energy changes from baseline, effect size d [1, 11]: 0.28 | VAS-Energy rating, Mean [1, 12]: 6.5 | VAS-Energy rating, Mean ([1]; Day 0 (before supplementation)): 5.5 | VAS-Energy Δ, effect size d ([1]; 100 mg once daily, Day 4, 60 min): 0.81 | VAS-Energy Δ, effect size d ([1]; 100 mg once daily, Day 4, 120 min): 0.69 | VAS-Energy Δ, effect size d ([1]; 100 mg once daily, Day 4, 120 min, listed as B): −0.03 | VAS-Energy Δ, effect size d ([1]; 100 mg once daily, Day 4, 180 min): 0.69 | VAS-Energy Δ from 0 min, Mean [1, 13]: 0.66 | VAS-Energy Δ, Mean Difference ± SE [1, 13]: 0.72 ± 0.23 | VAS-Energy Δ from 0 min, Mean [1, 14]: 0.42 | VAS-Energy Δ, Mean Difference ± SE [1, 14]: −0.03 ± 0.38 | VAS-Energy Δ from 0 min, Mean [1, 15]: 1.08 | VAS-Energy Δ, Mean Difference ± SE [1, 15]: 0.73 ± 1.11 | Stroop total score, Mean [2, 6]: 127.4 | Stroop total score, Mean [2, 8]: 131.5 | Stroop total score, Mean [2, 10]: 132.1 | Stroop total score, Mean [2, 12]: 134.8 | Stroop total score, Mean ([2]; Day 0 (before supplementation)): 125.0 | Trail Making Test score, Mean [3, 6]: 21.6 | Trail Making Test score, Mean [3, 8]: 20.4 | Trail Making Test score, Mean [3, 10]: 20.2 | Trail Making Test score, Mean [3, 12]: 20.3 | improvement in TMT performance ([3]; 4-days daily supplementation, Day 4 vs Day 0, p<0.001): +11.1% | Trail Making Test score, Mean ([3]; Day 0 (before supplementation)): 24.3 | effect on pharmacokinetics of caffeine ([4]; methylliberine 100 mg administered in combination with caffeine 150 mg): will alter pharmacokinetic effects of caffeine | half-life ([4]; oral, 25 mg and 100 mg, healthy subjects): 1 to 1.4 h

— US20260256794A1, “Oral Dynamine Formulations and Methods Therefor” (Ortho-Nutra, LLC, priority 2023, published 2026)
